Reference: patent publication US9656959B2, “Substituted pyridines as sodium channel blockers” (Purdue Pharma L.P., priority 2010, dated 2017)
Where two headings read alike, the source gives them in different places.

Target: human Nav1.7 (Homo sapiens (Human), UniProt Q15858)
Experiment: FLIPR or FLIPR TETRA sodium dye assay with KCl and test article pre-incubation
Format: cell-based
[1] = read-out: Nav1.7 Activity (μM) FLIPR assay IC50 (μM) ± SEM

Sequence of human Nav1.7 (Q15858 with tags, fused parts or gaps limits assumed): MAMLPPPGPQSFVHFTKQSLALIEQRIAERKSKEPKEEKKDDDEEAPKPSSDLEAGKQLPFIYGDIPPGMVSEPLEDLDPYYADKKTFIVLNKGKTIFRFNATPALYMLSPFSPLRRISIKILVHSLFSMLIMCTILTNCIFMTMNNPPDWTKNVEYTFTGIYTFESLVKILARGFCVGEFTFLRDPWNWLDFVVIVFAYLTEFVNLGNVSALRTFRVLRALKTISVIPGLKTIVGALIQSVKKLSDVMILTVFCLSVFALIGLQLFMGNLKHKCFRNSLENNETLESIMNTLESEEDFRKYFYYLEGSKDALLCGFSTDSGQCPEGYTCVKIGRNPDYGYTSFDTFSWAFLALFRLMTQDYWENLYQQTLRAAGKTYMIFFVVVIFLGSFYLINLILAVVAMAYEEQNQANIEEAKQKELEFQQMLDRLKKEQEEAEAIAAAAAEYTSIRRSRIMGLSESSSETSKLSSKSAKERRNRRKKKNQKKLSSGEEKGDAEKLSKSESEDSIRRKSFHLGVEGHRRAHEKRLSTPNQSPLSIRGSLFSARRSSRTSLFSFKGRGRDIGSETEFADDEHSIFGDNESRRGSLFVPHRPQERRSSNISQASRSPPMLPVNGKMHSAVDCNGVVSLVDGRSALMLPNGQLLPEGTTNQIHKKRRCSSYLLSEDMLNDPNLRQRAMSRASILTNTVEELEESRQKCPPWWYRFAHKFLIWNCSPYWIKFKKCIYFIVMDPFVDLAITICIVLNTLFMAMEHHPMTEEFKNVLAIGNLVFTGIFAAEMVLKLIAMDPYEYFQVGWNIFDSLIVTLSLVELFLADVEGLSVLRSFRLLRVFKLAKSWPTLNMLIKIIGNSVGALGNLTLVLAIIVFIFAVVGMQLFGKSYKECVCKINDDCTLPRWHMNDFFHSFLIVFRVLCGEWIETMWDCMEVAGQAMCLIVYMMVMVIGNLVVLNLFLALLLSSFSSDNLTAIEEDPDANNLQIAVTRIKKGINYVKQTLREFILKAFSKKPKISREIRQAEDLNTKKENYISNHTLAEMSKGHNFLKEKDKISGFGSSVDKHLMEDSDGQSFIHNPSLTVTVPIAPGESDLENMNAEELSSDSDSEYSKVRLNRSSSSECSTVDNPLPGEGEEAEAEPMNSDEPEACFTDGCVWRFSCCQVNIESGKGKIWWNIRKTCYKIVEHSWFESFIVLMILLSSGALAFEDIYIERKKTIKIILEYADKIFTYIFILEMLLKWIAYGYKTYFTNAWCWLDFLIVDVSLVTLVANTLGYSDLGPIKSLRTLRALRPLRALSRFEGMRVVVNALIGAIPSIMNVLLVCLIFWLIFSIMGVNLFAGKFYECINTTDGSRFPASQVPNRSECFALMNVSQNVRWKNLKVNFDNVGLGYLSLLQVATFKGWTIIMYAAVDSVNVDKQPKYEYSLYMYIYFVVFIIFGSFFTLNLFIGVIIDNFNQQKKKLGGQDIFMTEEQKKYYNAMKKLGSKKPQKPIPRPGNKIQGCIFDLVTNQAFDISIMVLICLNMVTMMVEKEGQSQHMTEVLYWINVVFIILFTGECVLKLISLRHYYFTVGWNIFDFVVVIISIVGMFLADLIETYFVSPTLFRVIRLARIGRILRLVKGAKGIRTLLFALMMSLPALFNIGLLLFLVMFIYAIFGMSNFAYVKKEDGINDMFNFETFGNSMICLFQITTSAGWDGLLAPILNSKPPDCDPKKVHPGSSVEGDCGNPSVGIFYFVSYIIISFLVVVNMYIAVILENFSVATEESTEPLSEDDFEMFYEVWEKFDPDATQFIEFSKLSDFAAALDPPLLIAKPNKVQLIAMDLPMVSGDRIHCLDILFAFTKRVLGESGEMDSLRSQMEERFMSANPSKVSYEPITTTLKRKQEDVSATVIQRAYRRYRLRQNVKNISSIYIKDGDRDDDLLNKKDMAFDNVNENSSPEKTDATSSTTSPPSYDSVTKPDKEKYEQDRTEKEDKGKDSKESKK

Structure (SMILES) | IC50 [1] [µM] | IC50 (recombinant Nav1.7/HEK293 cells, CoroNa Green sodium dye, veratridine + scorpion venom agonists, ± SEM) [µM]
COCCOCC(=O)N[C@@H](CC(C)C)C(=O)Nc1cccc(-c2ccc(Oc3ccc(F)cc3)cc2)n1 [Compound 9, (S)-N-(6-(4-(4-fluorophenoxy)phenyl)pyridin-2-yl)-2-(2-(2-methoxyethoxy)acetamido)-4-methylpentanamide] | 0.091 ± 0.02 | 
CC(C)C[C@H](NC(=O)c1cccnc1)C(=O)Nc1cccc(-c2ccc(Oc3ccc(F)cc3)cc2)n1 [Compound 10, (S)-N-(1-((6-(4-(4-fluorophenoxy)phenyl)pyridin-2-yl)amino)-4-methyl-1-oxopentan-2-yl)nicotinamide] | 0.091 ± 0.03 | 
CC(C)C[C@H](NC(=O)NC(C)C)C(=O)Nc1cccc(-c2ccc(Oc3ccc(F)cc3)cc2)n1 [Compound 11, (S)-N-(6-(4-(4-fluorophenoxy)phenyl)pyridin-2-yl)-2-(3-isopropylureido)-4-methylpentanamide] | 0.086 ± 0.02 | 
CS(=O)(=O)Nc1cc(Cl)cc(-c2ccc(Oc3ccc(F)cc3)cc2)n1 [Compound 15, N-(4-chloro-6-(4-(4-fluorophenoxy)phenyl)pyridin-2-yl)methanesulfonamide] | 0.26 ± 0.07 | 
CS(=O)(=O)N(C[C@H](O)CO)c1cc(Cl)cc(-c2ccc(Oc3ccc(F)cc3)cc2)n1 [Compound 17, (S)-N-(4-chloro-6-(4-(4-fluorophenoxy)phenyl)pyridin-2-yl)-N-(2,3-dihydroxypropyl)methanesulfonamide] | 0.094 ± 0.03 | 
NS(=O)(=O)Nc1cc(Cl)cc(-c2ccc(Oc3ccc(F)cc3)cc2)n1 [Compound 18, N-(4-chloro-6-(4-(4-fluorophenoxy)phenyl)pyridin-2-yl)sulfamide] | 1.5 ± 0.3 | 
CS(=O)(=O)Nc1cc([C@H](O)CO)cc(-c2ccc(Oc3ccc(F)cc3)cc2)n1 [Compound 24, (S)-N-(4-(1,2-dihydroxyethyl)-6-(4-(4-fluorophenoxy)phenyl)pyridin-2-yl)methanesulfonamide] | 2.9 ± 0.8 | 
Cn1cnc(S(=O)(=O)Nc2cc([C@H](O)CO)cc(-c3ccc(Oc4ccc(F)cc4)cc3)n2)c1 [Compound 26, (S)-N-(4-(1,2-dihydroxyethyl)-6-(4-(4-fluorophenoxy)phenyl)pyridin-2-yl)-1-methyl-1H-imidazole-4-sulfonamide] |  | > 20
CS(=O)(=O)Nc1cccc(-c2ccc(Oc3ccc(F)cc3)cc2)n1 [Compound 27, N-(6-(4-(4-fluorophenoxy)phenyl)pyridin-2-yl)methanesulfonamide] | 0.34 ± 0.05 | 
O=S(=O)(Nc1cccc(-c2ccc(Oc3ccc(F)cc3)cc2)n1)C1CC1 [Compound 28, N-(6-(4-(4-fluorophenoxy)phenyl)pyridin-2-yl)cyclopropane Sulfonamide] | 0.22 ± 0.07 | 
Cn1cnc(S(=O)(=O)Nc2cccc(-c3ccc(Oc4ccc(F)cc4)cc3)n2)c1 [Compound 29, N-(6-(4-(4-fluorophenoxy)phenyl)pyridin-2-yl)-1-methyl-1H-imidazole-4-sulfonamide] | 0.32 ± 0.05 | 
N[C@@H](Cc1c[nH]cn1)C(=O)Nc1cccc(-c2ccc(Oc3ccc(F)cc3)cc2)n1 [Compound 31, (S)-2-amino-N-(6-(4-(4-fluorophenoxy)phenyl)pyridin-2-yl)-3-(1H-imidazol-4-yl)propanamide] | 0.18 ± 0.02 | 
CC(=O)N1CCC(C(=O)N[C@@H](Cc2c[nH]cn2)C(=O)Nc2cccc(-c3ccc(Oc4ccc(F)cc4)cc3)n2)CC1 [Compound 34, (S)-1-acetyl-N-(1-((6-(4-(4-fluorophenoxy)phenyl)pyridin-2-yl)amino)-3-(1H-imidazol-4-yl)-1-oxopropan-2-yl)piperidine-4-carboxamide] | 0.58 ± 0.05 | 
COCC(=O)N[C@@H](Cc1c[nH]cn1)C(=O)Nc1cccc(-c2ccc(Oc3ccc(F)cc3)cc2)n1 [Compound 35, (S)-N-(6-(4-(4-fluorophenoxy)phenyl)pyridin-2-yl)-3-(1H-imidazol-4-yl)-2-(2-methoxyacetamido)propanamide] | 0.13 ± 0.02 | 
O=C(CO)N[C@@H](Cc1c[nH]cn1)C(=O)Nc1cccc(-c2ccc(Oc3ccc(F)cc3)cc2)n1 [Compound 36, (S)-N-(6-(4-(4-fluorophenoxy)phenyl)pyridin-2-yl)-2-(2-hydroxyacetamido)-3-(1H-imidazol-4-yl)propanamide] | 0.14 ± 0.01 | 
CC(C)(O)C(=O)N[C@@H](Cc1c[nH]cn1)C(=O)Nc1cccc(-c2ccc(Oc3ccc(F)cc3)cc2)n1 [Compound 37, (S)-N-(6-(4-(4-fluorophenoxy)phenyl)pyridin-2-yl)-2-(2-hydroxy-2-methylpropanamido)-3-(1H-imidazol-4-yl)propanamide] | 0.12 ± 0.03 | 
CC(C)(C)OC(=O)N[C@@H](CC(=O)Nc1cccc(-c2ccc(Oc3ccc(F)cc3)cc2)n1)C(N)=O [Compound 40, (S)-tert-butyl (1-amino-4-((6-(4-(4-fluorophenoxy)phenyl)pyridin-2-yl)amino)-1,4-dioxobutan-2-yl)carbamate] | 0.13 ± 0.03 | 
CC(C)(C)OC(=O)N[C@@H](CC(N)=O)C(=O)Nc1cccc(-c2ccc(Oc3ccc(F)cc3)cc2)n1 [Compound 41, (S)-tert-butyl (4-amino-1-((6-(4-(4-fluorophenoxy)phenyl)pyridin-2-yl)amino)-1,4-dioxobutan-2-yl)carbamate] | 0.066 ± 0.008 | 
CC(C)C[C@H](NC(=O)C1CC1)C(=O)Nc1cc([C@H](O)CO)cc(-c2ccc(Oc3ccc(F)cc3)cc2)n1 [Compound 44, N-((S)-1-((4-((S)-1,2-dihydroxyethyl)-6-(4-(4-fluorophenoxy)phenyl)pyridin-2-yl)amino)-4-methyl-1-oxopentan-2-yl)cyclopropanecarboxamide] | 0.059 ± 0.12 | 
CC(C)C[C@H](NC(=O)c1ccccn1)C(=O)Nc1cc([C@H](O)CO)cc(-c2ccc(Oc3ccc(F)cc3)cc2)n1 [Compound 45, N-((S)-1-((4-((S)-1,2-dihydroxyethyl)-6-(4-(4-fluorophenoxy)phenyl)pyridin-2-yl)amino)-4-methyl-1-oxopentan-2-yl)picolinamide] | 0.3 ± 0.07 | 
O=C(N[C@@H](CO)C(=O)Nc1cccc(-c2ccc(Oc3ccc(F)cc3)cc2)n1)c1ccccn1 [Compound 54, Pyridine-2-carboxylic acid ((S)-1-{6-[4-(4-fluoro-phenoxy)-phenyl]-pyridin-2-ylcarbamoyl}-2-hydroxy-ethyl)-amide] | 0.07 ± 0.02 | 
O=C(N[C@@H](CO)C(=O)Nc1cccc(-c2ccc(Oc3ccc(F)cc3)cc2)n1)C1CC1 [Compound 55, Cyclopropanecarboxylic acid ((S)-1-{6-[4-(4-fluoro-phenoxy)-phenyl]-pyridin-2-ylcarbamoyl}-2-hydroxy-ethyl)-amide] | 0.06 ± 0.006 | 
O=C(N[C@@H](CO)C(=O)Nc1cccc(-c2ccc(Oc3ccc(F)cc3)cc2)n1)c1ccncc1 [Compound 57, N-((S)-1-{6-[4-(4-Fluoro-phenoxy)-phenyl]-pyridin-2-ylcarbamoyl}-2-hydroxy-ethyl)-isonicotinamide] | 0.16 ± 0.03 | 
Cc1cc(C(=O)N[C@@H](CO)C(=O)Nc2cccc(-c3ccc(Oc4ccc(F)cc4)cc3)n2)no1 [Compound 58, 5-Methyl-isoxazole-3-carboxylic acid ((S)-1-{6-[4-(4-fluoro-phenoxy)-phenyl]-pyridin-2-ylcarbamoyl}-2-hydroxy-ethyl)-amide] | 0.11 ± 0.04 | 
CC(C)(C)OC(=O)N[C@@H](CO)C(=O)Nc1cccc(-c2ccc(Oc3ccc(F)cc3)cc2)n1 [Compound 59, ((S)-1-{6-[4-(4-Fluoro-phenoxy)-phenyl]-pyridin-2-ylcarbamoyl}-2-hydroxy-ethyl)-carbamic acid tert-butyl ester] | 0.31 ± 0.07 | 
